Measured values published in patent US10238645B2 (priority 2009, dated 2019).
Where two headings read alike, the source gives them in different places.

Assays:
[1] = Open label pharmacokinetic study GW01-0804: serum pharmacokinetics; details: for Geometric LS Mean, Reference (trough serum concentration) / Geometric LS Mean, Test (trough serum concentration): Primary steady-state analysis
Description: Subjects stayed at the study center overnight during the treatment initiation visit (Day 1, first evening application) and the end-of-treatment visit (Day 21, last evening application). […] In addition, serum PK samples were collected in the evening prior to application on Days 7 and 14 to determine trough concentrations for steady-state analysis.
In addition, single blood draws for PK analysis of trough concentrations to determine steady state were obtained on Day 7 and Day 14 (in the evening prior to application). Blood samples could be obtained within ±5 minutes of the target sampling time.
Pharmacokinetic variables will be calculated from the serum concentration data using standard, non-compartmental methods.

[2] = test system: rabbit left ventricular wedge preparation; assay: Arterially perfused rabbit left ventricular wedge preparation (QT, QRS, Tp-e, arrhythmogenesis)
Protocol: New Zealand White rabbits, either sex weighing 2.3-2.8 kg were anticoagulated with heparin and anesthetized with ketamine/xylazine (40-50 mg/0.5-1.0 mg, per kg, i.v.). The chest was opened via a left thoracotomy, and the heart was excised and placed in a cardioplegic solution consisting of cold (4° C.) normal Tyrode's solution. Transmural wedges with dimensions of approximately 1.5 cm wide and 2-3 cm long were dissected from the left ventricle as described before (Liu et al, Heart Rhythm 2006; 3:948-956). The tissue was cannulated via a small branch of the left anterior descending artery and perfused with cardioplegic solution. […] The ventricular wedge was allowed to equilibrate in the tissue bath until electrically stable for one hour. The preparations were stimulated at basic cycle lengths (BCL) of 1000 and 2000 ms using bipolar silver electrodes insulated except at the tips and applied to the endocardial surface.
The QT interval was defined as the time from the onset of the QRS to the point at which the final downslope of the T wave crosses the isoelectric line. Transmembrane action potential from the endocardium (Endo) was recorded for identification of EADs only when QT prolongation >30% via a customer-made amplifier. Transmural dispersion of repolarization (TDR) was defined as the interval between the end and the peak of T wave (Tp-e).
The ratio of Tp-e to QT was calculated. • (6) Arrhythmic phenomena, including spontaneous R-on-T ectopic beats and TdP, were recorded if they occurred. 3.5 To Estimate Relative TdP Risk
The relative TdP risk of each compound was estimated according in which the Tp-e/QT ratio and […] phenomena were emphasized.
Results were presented as mean±SEM. Statistical analysis was performed using the Student's t-test. A p<0.05 is considered as statistically significant when compared the values at control perfusion.

[3] = Acute dermal toxicity study under occlusion; type: in vivo, rabbits
[4] = Systemic embryofetal development study, oral; type: in vivo; details: rats
Protocol: (§1) Note: The animal multiples of human exposure calculations were based on daily dose comparisons in this label.
Systemic embryofetal development studies were conducted in rats and rabbits.

[5] = Systemic embryofetal development study, intravenous; type: in vivo; details: rabbits
Description: as §1

[6] = rats, oral
Protocol: A combined fertility and peri- and post-natal development study was conducted in rats.

[7] = Oral (gavage) carcinogenicity study, 24 months; type: in vivo; details: Wistar rats, up to 6 mg/kg 2×/week females (50×MRHD), 4 mg/kg 2×/week males (40×MRHD), 3 mg/kg 7×/week (25×MRHD)
[8] = 52-week dermal photo-carcinogenicity study; type: in vivo; details: hairless mice, imiquimod added to the vehicle cream
Description: The enhancement of ultraviolet carcinogenicity is not necessarily dependent on phototoxic mechanisms. Therefore, patients should minimize or avoid natural or artificial sunlight exposure to the affected areas.
In a 52-week dermal photo-carcinogenicity study, the median time to onset of skin tumor formation was decreased in hairless mice following chronic topical dosing (3×/week; 40 weeks of treatment followed by 12 weeks of observation) with concurrent exposure to UV radiation (5 days per week) with vehicle alone.

[9] = Genotoxicity tests (five in vitro, three in vivo); details: five in vitro and three in vivo genotoxicity tests
[10] = Multiple oral imiquimod doses (overdosage); type: in vivo, human; details: multiple oral doses of >200 mg
[11] = Single dose (oral, intraperitoneal, subcutaneous, intravenous) and repeat dose toxicity studies; details: for LD50: in vivo

SMILES: CC(C)Cn1cnc2c(N)nc3ccccc3c21 [Imiquimod (R-837)]
- AUC(0-inf) ([1]; both, human, in vivo): 5.35 ng·h/mL
- AUC(0-t) ([1]; both, human, in vivo, AUC0-24, Mean, serum, Day 1): 3.75 ng·h/mL
- AUC(0-t) ([1]; both, human, in vivo, AUC0-24, Mean, serum, Day 21): 6.79 ng·h/mL
- AUC(0-t) ([1]; both, human, in vivo, AUC0-t, Mean, serum, Day 1): 3.12 ng·h/mL
- half-life ([1]; both, human, in vivo, T1/2, Mean, serum, Day 1): 747 min
- half-life ([1]; both, human, in vivo, T1/2, Mean, serum, Day 21): 1450 min
- half-life ([1]; both, human, in vivo, T1/2 EFF, Mean, serum, Day 21): 1880 min
- λz, Mean ([1]; serum, Day 1): 0.0756 h⁻¹
- λz EFF, Mean ([1]; serum, Day 21): 0.0380 h⁻¹
- λz, Mean ([1]; serum, Day 21): 0.0370 h⁻¹

SMILES: COc1cc(N)c(Cl)cc1C(=O)NC1CCN(CCCOc2ccc(F)cc2)CC1OC (stereo not shown) [cisapride]
- Effect on Tp-e interval [2]: marked concentration-dependent Tp-e prolongation
- Equivocal EAD (preparations) ([2]; both, New Zealand White, rabbit, 0.5 uM): 1 of 4

SMILES: CC(C)Cn1cnc2c(N)nc3ccccc3c21 [imiquimod, 1-(2-methylpropyl)-1H-imidazo[4,5-c]quinolin-4-amine]
- LD50 ([3]; Rabbit, Dermal): >5000 mg/kg
- Acute dermal toxicity ([3]; rabbits, under occlusion, 5000 mg/kg): did not reveal any toxic effects
- QT increase ([2]; 150 nM, BCL of 2000 ms, comparable to DMSO vehicle): 4%
- Proarrhythmic events ([2]; any preparation at any concentration): did not cause any proarrhythmic events
- Effect on QT interval ([2]; concentration range tested): does not have a significant effect
- Effect on Tp-e interval ([2]; concentration range tested): no significant effect
- Effect on QRS duration ([2]; imiquimod 0.5-150 nM, cisapride at 0.5 uM): no significant effect
- Embryofetal toxicity or teratogenicity ([4]; 5 mg/kg/day (73×MRHD based on AUC)): No treatment related effects
- Fetal effects ([4]; 20 mg/kg/day (375×MRHD based on AUC), in the presence of maternal toxicity): increased resorptions, decreased fetal body weights, delays in skeletal ossification, bent limb bones
- Embryofetal toxicity or teratogenicity ([5]; 1 mg/kg/day (234×MRHD based on AUC)): No treatment related effects
- Embryofetal toxicity or teratogenicity ([5]; 2 mg/kg/day (2.1×MRHD based on BSA)): No treatment related effects
- Teratogenicity ([6]; 3 mg/kg/day (24×MRHD based on AUC)): No treatment related effects
- Finding in F1 fetuses ([6]; 6 mg/kg/day (50×MRHD), absence of maternal toxicity): bent limb bones
- Tumors in oral carcinogenicity study [7]: No treatment related tumors
- Tumor development with UV radiation [8]: No additional effect on tumor development beyond the vehicle effect
- Mutagenic or clastogenic potential [9]: no evidence of mutagenic or clastogenic potential
- Most clinically serious adverse event [10]: hypotension
- Geometric LS Mean, Reference (trough serum concentration) ([1]; Day 14 vs. Day 7, N 13): 0.1543
- Geometric LS Mean, Test (trough serum concentration) ([1]; Day 14 vs. Day 7, N 13): 0.1749
- Geometric LS Mean, Reference (trough serum concentration) ([1]; Day 21 vs. Day 14, N 11): 0.1874
- Geometric LS Mean, Test (trough serum concentration) ([1]; Day 21 vs. Day 14, N 11): 0.1571
- Geometric LS Mean, Reference (trough serum concentration) ([1]; Day 22 vs. Day 21, N 12): 0.1643
- Geometric LS Mean, Test (trough serum concentration) ([1]; Day 22 vs. Day 21, N 12): 0.1839
- concentration at 7 day (trough, evening prior to application) ([1]; both, human, in vivo, Geometric LS Mean, Reference (trough serum concentration), Secondary steady-state analysis (BLQ replaced with LLOQ/2), Day 14 vs. Day 7, N 17): 0.127 ng/mL
- concentration at 14 day (trough, evening prior to application) ([1]; both, human, in vivo, Geometric LS Mean, Reference (trough serum concentration), Secondary steady-state analysis (BLQ replaced with LLOQ/2), Day 21 vs. Day 14, N 15): 0.115 ng/mL
- concentration at 14 day (trough, evening prior to application) ([1]; both, human, in vivo, Geometric LS Mean, Test (trough serum concentration), Secondary steady-state analysis (BLQ replaced with LLOQ/2), Day 14 vs. Day 7, N 17): 0.126 ng/mL
- concentration at 22 day (trough, 24 h after the Day 21 application) ([1]; both, human, in vivo, Geometric LS Mean, Test (trough serum concentration), Secondary steady-state analysis (BLQ replaced with LLOQ/2), Day 22 vs. Day 21, N 15): 0.156 ng/mL
- Signs of CNS toxicity ([11]; lower repeat doses (100 mg/kg or lower)): did not occur
- LD50 ([11]; monkey, iv, LD50, Monkey, intravenous bolus): > 6 mg/kg
- LD50 ([11]; monkey, iv, LD50, Monkey, intravenous infusion): ~8 mg/kg
- LD50 ([11]; monkey, po, LD50, Monkey): > 200 mg/kg
- LD50 ([11]; mouse, ip, LD50, Mouse, Intraperitoneal): 879 mg/kg
- LD50 ([11]; mouse, po, LD50, Mouse): 403 mg/kg
- Single dose toxicity ([11]; oral, intraperitoneal, subcutaneous or intravenous, lethal doses): central nervous system (CNS) stimulation and convulsions
- LD50 ([11]; rat, ip, LD50, Rat, Intraperitoneal): 763 mg/kg
- LD50 ([11]; rat, po, LD50, Rat): 1660 mg/kg
- LD50 ([11]; rat, sc, LD50, Rat, Subcutaneous): ~20 mg/kg
